Source: patent US20250130239A1, “PROTEIN DEGRADER” (University of Dundee, priority 2021, published 2025)

Key:
[1] = system: untagged Brd2 and endogenous Brd3 and Brd4; assay: Off-target degradation of endogenous BET proteins (western blot) in BromoTag-Brd2 HEK293 cells; type: cell-based, human; conditions: 1 nM to 10 μM; 6 h
Method: (§1) Dose-response Degradation Assays. All dose-response degradation assays were performed on the genotype verified heterozygous BromoTag-Brd2 HEK293 cell line. Heterozygous BromoTag-Brd2 HEK293 cells were plated at a density of 5×10^5 cells per well of a six healthy plate a day before initiation of the titration experiment. PROTAC compounds were dissolved in DMSO at a concentration of 10 mM, from these stock concentrations, PROTAC compounds were diluted to appropriate concentrations using DMSO in the range of 10 μM-1 nM. The compounds were then added to a 2 mL of DMEM (Invitrogen, Carlsebad, CA, USA) supplemented with 10% (v/v) Fetal bovine serum (FBS) (Thermo Fisher, Waltham, MA, USA) and 1% (v/v) penicillin/streptomycin (pen/strep) (#15140122, Thermo Fisher, Waltham, MA, USA) and added to the cells at initiation of the experiment. Control compounds such as MZ1, cis-MZ1 were similarly dissolved in DMSO to the appropriate concentration. All titration experiment were performed for a total of 6 hours prior to being harvested and were kept at 37° C., 5% CO2, and 95% humidity once treatment was applied until right before harvesting. Cells were washed twice with PBS before being harvested.
(§2) Western Blotting. […] Total protein quantity was determined using the BCA protein assay (#23225, Pierce, Rockford, Illinois). Protein concentration was determined using the BCA assay (ThermoFisher Scientific, 23225). […] All western blots were analysed for band intensities using Image Lab from Bio-Rad (LI-COR, Biosciences). The data extracted from these blots were then plotted and analysed using Prism (v. 8.2.0, GraphPad).
Development of a Knock-in Cell Line with BromoTag fused to endogenous Brd2 using CRISPR. […] To this end, the endogenous BET family protein Brd2 was chosen as a model target, due to the availability of well-established antibody for Brd2 detection, and expression of a single protein isoform as well detected band in the western blot (Filippakopoulos, P.; Knapp, S., Nat Rev Drug Discov. 2014, 13 (5), 337-356). […]

[2] = target: T1, Brd3 (Homo sapiens, UniProt Q15059); assay: Off-target degradation of Brd3 (western blot) in BromoTag-Brd2 HEK293 cells; type: cell-based
T1 construct: endogenous Brd3 and Brd4; endogenous in cells; host or cells: heterozygous BromoTag-Brd2 HEK293 cells
Method: as §1, with “All titration experiment were performed for a total of 6 hours prior to being harvested and were kept at 37° C., 5% CO2, and 95% humidity once treatment was applied until right before harvesting. Cells were washed twice with PBS before being harvested.” left out
as §2

[3] = target: T2, VHL, compound preincubated with Brd4^BD2 L387A (Homo sapiens, UniProt O60885+P40337, L387A); assay: Fluorescence polarization competitive binding assay, ternary complex binding; conditions: displacement of HIF-1a peptide probe, read-out: ternary binding affinity Kd
T2 construct: N-terminally Hiss-tagged VHL (54-213); N-terminally His6-tagged Brd4-BD2^L387A (333-460) was expressed in E. coli; His6 (N, cleaved yes); made in house; host or cells: E. coli
Method: (§3) Protein Expression and Purification. […] The complex was further purified by anion exchange followed by gel filtration chromatography.
(§4) Fluorescence Polarization Binding Assay. […] All components were dissolved from stock solutions using 100 mM Bis-Tris propane, 100 mM NaCl, 1 mM DTT, pH 7.0, to yield a final assay volume of 15 μL. DMSO was added as appropriate to ensure a final concentration of 2% v/v. […] Percentage displacement values were obtained by normalization of controls were plotted against Log[Compound]. IC50 values were determined for each titration using nonlinear regression analysis with Prism (v. 9.1.0, GraphPad). […] Cooperativity values (a) for each PROTAC were calculated using the ratio: α=binary Kd (−bromodomain)/ternary Kd (+bromodomain).

[4] = target: T3, BromoTag-Brd2 (Homo sapiens, UniProt O60885+P40337, L387A); assay: Time-course degradation assay in heterozygous BromoTag-Brd2 HEK293 cells; type: cell-based; conditions: 500 nM 47, 1 μM 48; over 36 h
T3 construct: comprising residues 368-440 of human Brd4; Brd2 (endogenous protein, fusion partner in the same polypeptide); eGFP-P2A (upstream marker in the knock-in cassette) (N, cleaved yes); expressed in transfected cells; host or cells: HEK293, heterozygous CRISPR knock-in at the endogenous BRD2 locus
Method: Time-course Degradation Assay. Time-course degradation assays using PROTACs AGB1, AGB2, and AGB3 were performed on the genotype verified heterozygous BromoTag-Brd2 HEK293 cell line. Heterozygous BromoTag-Brd2 HEK293 cells were plated at a density of 5×10^5 cells per well of a 6 healthy plate a day prior to initiation of the Timecourse assay. PROTAC's AGB1 & AGB2 were diluted in DMSO to a concentration of 1 mM prior to being further diluted 1:2000 in 2 mL of DMEM to a concentration of 500 nM per timepoint. PROTAC AGB3 was diluted in DMSO to a concentration of 2 mM prior to being further diluted 1:2000 in 2 mL of DMEM to a concentration of 1 μM per timepoint. Timepoint range was between 0-36 h. Treatment was applied in a staggered fashion to enable all timepoints to be harvested at the same time.
Western Blotting. All cells were harvested on ice with RIPA lysis, and extraction buffer (ThermoFisher Scientific, 89901) supplemented with protease inhibitor cocktail (Merck, 11697498001) and Benzonase® Nuclease (Sigma, E1014) before being store at −20° C. prior to use. Total protein quantity was determined using the BCA protein assay (#23225, Pierce, Rockford, Illinois). Protein concentration was determined using the BCA assay (ThermoFisher Scientific, 23225). Samples were then prepared and loaded onto NuPAGE™ 4-12% Bis-Tris Midi gels (ThermoFisher Scientific, WG1403A), followed by the transfer of the proteins onto nitrocellulose membranes (EMD Millipore). The membranes were blocked for 1 h prior to incubation with the primary antibodies using 5% Milk TBST. Membranes were probed for Brd2 (Abcam, Ab139690, 1:1000), Brd3 (Abcam, Ab50818, 1:4000), Brd4 (Abcam, Ab128874, 1:1000) or our polyclonal Brd4^BD2 L387A antibody. […] All western blots were analysed for band intensities using Image Lab from Bio-Rad (LI-COR, Biosciences). The data extracted from these blots were then plotted and analysed using Prism (v. 8.2.0, GraphPad).

[5] = target: T4, VHL (VCB protein) (Homo sapiens, UniProt P40337); assay: Fluorescence polarization competitive binding assay, binary binding; conditions: compound alone; displacement of HIF-1a peptide probe; read-out: binary affinity to VHL Kd
T4 construct: N-terminally Hiss-tagged VHL (54-213); His6 (N, cleaved yes); made in house; host or cells: E. coli
Method: as §3, §4

[6] = target: T3, BromoTag-Brd2; assay: Dose-response degradation assay (western blot, 6 h) in heterozygous BromoTag-Brd2 HEK293 cells; type: cell-based; conditions: 6 h; for pDC50: 8-point 10 μM-1 nM, mean (±S.E.) of two repeats
Method: Dose-response Degradation Assays. All dose-response degradation assays were performed on the genotype verified heterozygous BromoTag-Brd2 HEK293 cell line. Heterozygous BromoTag-Brd2 HEK293 cells were plated at a density of 5×10^5 cells per well of a six healthy plate a day before initiation of the titration experiment. PROTAC compounds were dissolved in DMSO at a concentration of 10 mM, from these stock concentrations, PROTAC compounds were diluted to appropriate concentrations using DMSO in the range of 10 μM-1 nM. […] Control compounds such as MZ1, cis-MZ1 were similarly dissolved in DMSO to the appropriate concentration. […] Cells were washed twice with PBS before being harvested.
Western Blotting. […] The membranes were blocked for 1 h prior to incubation with the primary antibodies using 5% Milk TBST. […] Following overnight incubation with the primary antibodies at 4° C., the membranes were incubated with secondary antibodies (Anti-rabbit, Abcam AB216773, 1:5000 or anti-mouse, Abcam AB216774, 1:5000) and hFAB™ Rhodamine Anti-Tubulin Antibody (Biorad, 12004165, 1:10000) for one h and then imaged with a Bio-Rad imager (LI-COR Biosciences). All western blots were analysed for band intensities using Image Lab from Bio-Rad (LI-COR, Biosciences). The data extracted from these blots were then plotted and analysed using Prism (v. 8.2.0, GraphPad).

| Structure (SMILES) | off-target degradation of untagged Brd2 or the other endogenous BET proteins [1] | off-target degradation of Brd3 ([2]; at 1 μM, 6 h) | Kd [3] [µM] | off-target degradation of Brd3 ([2]; at 100-1,000 nM) | extent of BromoTag-Brd2 degradation in the time course [4] | Kd [5] [µM] | DC50 ([6]; range over the two antibodies) [µM] | pDC50 ([6]; Ab: Brd4^BD2 L387A, single stereoisomers) | pDC50 ([6]; Ab: BromoTag-Brd2, single stereoisomers) | Dmax ([6]; HEK293, Ab: Brd4^BD2 L387A, single stereoisomers) [%] |
| --- | --- | --- | --- | --- | --- | --- | --- | --- | --- | --- |
| CC[C@@H](C(=O)OCCOCCCOCC(=O)N[C@H](C(=O)N1C[C@H](O)C[C@H]1C(=O)N[C@@H](C)c1ccc(-c2scnc2C)cc1)C(C)(C)C)[C@@H]1N=C(c2ccc(Cl)cc2)c2c(sc(C)c2C)-n2c(C)nnc21 (relative stereo) [ET-OARV-771 (25), 2-(3-(2-(((S)-1-((2S,4R)-4-hydroxy-2-(((S)-1-(4-(4-methylthiazol-5-yl)phenyl)ethyl)carbamoyl)pyrrolidin-1-yl)-3,3-dimethyl-1-oxobutan-2-yl)amino)-2-oxoethoxy)propoxy)ethyl (R*)-2-((S*)-4-(4-chlorophenyl)-2,3,9-trimethyl-6H-thieno[3,2-f][1,2,4]triazolo[4,3-a][1,4]diazepin-6-yl)butanoate] | no observable off-target degradation | minor off-target degradation | – | – | – | – | – | – | – | – |
| CC[C@@H](C(=O)OCCOCCCOCC(=O)N[C@H](C(=O)N1C[C@H](O)C[C@H]1C(=O)N[C@@H](C)c1ccc(-c2scnc2C)cc1)C(C)(C)C)[C@@H]1N=C(c2ccc(Cl)cc2)c2c(sc(C)c2C)-n2c(C)nnc21 (single isomer, unassigned) [AGB2 (47)] | – | – | 0.012 | minor off-target degradation | near complete target degradation | 0.045 | – | – | – | – |
| CC[C@@H](C(=O)NCCOCCOCCOCC(=O)N[C@H](C(=O)N1C[C@H](O)C[C@H]1C(=O)NCc1ccc(-c2scnc2C)cc1)C(C)(C)C)[C@@H]1N=C(c2ccc(Cl)cc2)c2c(sc(C)c2C)-n2c(C)nnc21 (single isomer, unassigned) [AGB3 (48)] | – | – | 0.009 | – | ~80% | 0.102 | 0.21 to 0.29 | 6.5 ± 0.3 | 6.7 ± 0.1 | 92 |
